Values after ≈ are worked out from the molar mass of the structure shown. Active and inactive are the calls of the source. No cut-off for these calls is given here.
Tests used:
Candida albicans [1] = assay: Antimicrobial activity against Candida albicans MTCC 183 by agar streak dilution method; assay type: functional
Aspergillus clavatus [2] = assay: Antimicrobial activity against Aspergillus clavatus MTCC 1323 by paper disk diffusion method; assay type: functional
Aspergillus niger [3] = assay: Antimicrobial activity against Aspergillus niger MTCC 282 by paper-disk diffusion method; assay type: functional
Aspergillus fumigatus [4] = assay: Antimicrobial activity against Aspergillus fumigatus MTCC 343 by paper-disk diffusion method; assay type: functional
Shigella flexneri [5] = assay: Antimicrobial activity against Shigella flexneri MTCC 1457 at 100 ug/ml by paper-disk diffusion method; assay type: functional, organism-based
Klebsiella pneumoniae [6] = assay: Antimicrobial activity against Klebsiella pneumoniae MTCC 109 at 100 ug/ml by paper disk diffusion method; assay type: functional, organism-based
Proteus vulgaris [7] = assay: Antimicrobial activity against Proteus vulgaris MTCC 1771 by paper disk diffusion method; assay type: functional
Salmonella typhi [8] = assay: Antimicrobial activity against Salmonella enterica subsp. enterica serovar Typhi MTCC 733 by paper disk diffusion method; assay type: functional
Pseudomonas aeruginosa [9] = assay: Antimicrobial activity against Pseudomonas aeruginosa MTCC 741 by paper disk diffusion method; assay type: functional
Bacillus cereus [10] = assay: Antimicrobial activity against Bacillus cereus MTCC 619 by paper disk diffusion method; assay type: functional
Escherichia coli [11] = assay: Antimicrobial activity against Escherichia coli MTCC 739 by paper disk diffusion method; assay type: functional
Staphylococcus aureus [12] = assay: Antimicrobial activity against Staphylococcus aureus MTCC 96 by paper-disk diffusion method; assay type: functional
Aspergillus clavatus [13] = assay: Antimicrobial activity against Aspergillus clavatus MTCC 1323 by agar streak dilution method; assay type: functional
Aspergillus fumigatus [14] = assay: Antimicrobial activity against Aspergillus fumigatus MTCC 343 by agar streak dilution method; assay type: functional
Aspergillus niger [15] = assay: Antimicrobial activity against Aspergillus niger MTCC 282 by agar streak dilution method; assay type: functional
Proteus vulgaris [16] = assay: Antimicrobial activity against Proteus vulgaris MTCC 1771 by agar streak dilution method; assay type: functional
Salmonella typhi [17] = assay: Antimicrobial activity against Salmonella enterica subsp. enterica serovar Typhi MTCC 733 by agar streak dilution method; assay type: functional
Pseudomonas aeruginosa [18] = assay: Antimicrobial activity against Pseudomonas aeruginosa MTCC 741 by agar streak dilution method; assay type: functional
Staphylococcus aureus [19] = assay: Antimicrobial activity against Staphylococcus aureus MTCC 96 by agar streak dilution method; assay type: functional
Bacillus cereus [20] = assay: Antimicrobial activity against Bacillus cereus MTCC 619 by agar streak dilution method; assay type: functional
[21] = tested on: Mycobacterium tuberculosis; assay: Antimicrobial activity against Mycobacterium tuberculosis H37Rv at 100 ug/ml by BACTEC MGIT method; assay type: functional, organism-based
Escherichia coli [22] = assay: Antimicrobial activity against Escherichia coli MTCC 739 by agar streak dilution method; assay type: functional
[23] = tested on: Mycobacterium tuberculosis; assay: Antimicrobial activity against Mycobacterium tuberculosis H37Rv by Lowenstein and Jensen method; assay type: functional; settings: for MIC: Mycobacterium tuberculosis, H37Rv
[24] = tested on: Mycobacterium tuberculosis; assay: Antimicrobial activity against Mycobacterium tuberculosis H37Rv by BACTEC MGIT method; assay type: functional; settings: Mycobacterium tuberculosis, H37Rv
Candida albicans [25] = assay: Antimicrobial activity against Candida albicans MTCC 183 by paper-disk diffusion method; assay type: functional
Klebsiella pneumoniae [26] = assay: Antimicrobial activity against Klebsiella pneumoniae MTCC 109 by paper disk diffusion method; assay type: functional
Klebsiella pneumoniae [27] = assay: Antimicrobial activity against Klebsiella pneumoniae MTCC 109 by agar streak dilution method; assay type: functional
Aspergillus fumigatus [28] = assay: Antimicrobial activity against Aspergillus fumigatus MTCC 343 at 100 ug/ml by paper-disk diffusion method; assay type: functional, organism-based
Aspergillus clavatus [29] = assay: Antimicrobial activity against Aspergillus clavatus MTCC 1323 at 100 ug/ml by paper disk diffusion method; assay type: functional, organism-based
Pseudomonas aeruginosa [30] = assay: Antimicrobial activity against Pseudomonas aeruginosa MTCC 741 at 100 ug/ml by paper disk diffusion method; assay type: functional, organism-based
Shigella flexneri [31] = assay: Antimicrobial activity against Shigella flexneri MTCC 1457 by paper disk diffusion method; assay type: functional
Shigella flexneri [32] = assay: Antimicrobial activity against Shigella flexneri MTCC 1457 by agar streak dilution method; assay type: functional

N#Cc1ccc(Nc2nc(Oc3ncnc4ccccc34)nc(N3CCN(C(c4ccccc4)c4ccccc4)CC3)n2)cc1C(F)(F)F
MIC (Candida albicans [1]): 100 µg/mL (≈ 152 µM) | inhibition zone (IZ) (Aspergillus clavatus [2]): 21 mm | inhibition zone (IZ) (Aspergillus niger [3]): 21 mm | inhibition zone (IZ) (Aspergillus fumigatus [4]): 23 mm | inhibition zone (IZ) (Shigella flexneri [5]): inactive | inhibition zone (IZ) (Klebsiella pneumoniae [6]): inactive | inhibition zone (IZ) (Proteus vulgaris [7]): 21 mm | inhibition zone (IZ) (Salmonella typhi [8]): 23 mm | inhibition zone (IZ) (Pseudomonas aeruginosa [9]): 22 mm | inhibition zone (IZ) (Bacillus cereus [10]): 24 mm | inhibition zone (IZ) (Escherichia coli [11]): 23 mm | inhibition zone (IZ) (Staphylococcus aureus [12]): 25 mm | MIC (Aspergillus clavatus [13]): 100 µg/mL (≈ 152 µM) | MIC (Aspergillus fumigatus [14]): 100 µg/mL (≈ 152 µM) | MIC (Aspergillus niger [15]): 100 µg/mL (≈ 152 µM) | MIC (Proteus vulgaris [16]): 100 µg/mL (≈ 152 µM) | MIC (Salmonella typhi [17]): 100 µg/mL (≈ 152 µM) | MIC (Pseudomonas aeruginosa [18]): 50 µg/mL (≈ 75.8 µM) | MIC (Staphylococcus aureus [19]): 25 µg/mL (≈ 37.9 µM) | MIC (Bacillus cereus [20]): 100 µg/mL (≈ 152 µM) | inhibition [21]: inactive | MIC (Escherichia coli [22]): 100 µg/mL (≈ 152 µM) | inhibition (percent inhibition) [23]: 97% | MIC [23]: 62.5 µg/mL (≈ 94.7 µM) | MIC [24]: > 6.25 µg/mL | inhibition zone (IZ) (Candida albicans [25]): 21 mm

N#Cc1ccc(Nc2nc(Oc3ncnc4ccccc34)nc(N3CCN(c4ncccn4)CC3)n2)cc1C(F)(F)F
MIC (Candida albicans [1]): 100 µg/mL (≈ 175 µM) | inhibition zone (IZ) (Aspergillus niger [3]): 22 mm | inhibition zone (IZ) (Shigella flexneri [5]): inactive | inhibition zone (IZ) (Proteus vulgaris [7]): 21 mm | inhibition zone (IZ) (Salmonella typhi [8]): 22 mm | inhibition zone (IZ) (Klebsiella pneumoniae [26]): 20 mm | inhibition zone (IZ) (Pseudomonas aeruginosa [9]): 22 mm | inhibition zone (IZ) (Bacillus cereus [10]): 25 mm | inhibition zone (IZ) (Escherichia coli [11]): 23 mm | inhibition zone (IZ) (Staphylococcus aureus [12]): 23 mm | MIC (Aspergillus niger [15]): 100 µg/mL (≈ 175 µM) | MIC (Proteus vulgaris [16]): 100 µg/mL (≈ 175 µM) | MIC (Klebsiella pneumoniae [27]): 100 µg/mL (≈ 175 µM) | MIC (Salmonella typhi [17]): 50 µg/mL (≈ 87.5 µM) | MIC (Pseudomonas aeruginosa [18]): 50 µg/mL (≈ 87.5 µM) | MIC (Staphylococcus aureus [19]): 25 µg/mL (≈ 43.7 µM) | MIC (Bacillus cereus [20]): 50 µg/mL (≈ 87.5 µM) | inhibition [21]: inactive | MIC (Escherichia coli [22]): 100 µg/mL (≈ 175 µM) | inhibition (percent inhibition) [23]: 96% | MIC [23]: 200 µg/mL (≈ 350 µM) | MIC [24]: > 6.25 µg/mL | inhibition zone (IZ) (Aspergillus fumigatus [28]): inactive | inhibition zone (IZ) (Aspergillus clavatus [29]): inactive | inhibition zone (IZ) (Candida albicans [25]): 22 mm

CC(C)N1CCN(c2nc(Nc3ccc(C#N)c(C(F)(F)F)c3)nc(Oc3ncnc4ccccc34)n2)CC1
MIC (Candida albicans [1]): 50 µg/mL (≈ 93.4 µM) | inhibition zone (IZ) (Aspergillus clavatus [2]): 23 mm | inhibition zone (IZ) (Aspergillus niger [3]): 22 mm | inhibition zone (IZ) (Aspergillus fumigatus [4]): 23 mm | inhibition zone (IZ) (Shigella flexneri [5]): inactive | inhibition zone (IZ) (Proteus vulgaris [7]): 24 mm | inhibition zone (IZ) (Salmonella typhi [8]): 23 mm | inhibition zone (IZ) (Klebsiella pneumoniae [26]): 22 mm | inhibition zone (IZ) (Pseudomonas aeruginosa [9]): 24 mm | inhibition zone (IZ) (Bacillus cereus [10]): 23 mm | inhibition zone (IZ) (Escherichia coli [11]): 27 mm | inhibition zone (IZ) (Staphylococcus aureus [12]): 25 mm | MIC (Aspergillus clavatus [13]): 25 µg/mL (≈ 46.7 µM) | MIC (Aspergillus fumigatus [14]): 50 µg/mL (≈ 93.4 µM) | MIC (Aspergillus niger [15]): 100 µg/mL (≈ 187 µM) | MIC (Proteus vulgaris [16]): 25 µg/mL (≈ 46.7 µM) | MIC (Klebsiella pneumoniae [27]): 50 µg/mL (≈ 93.4 µM) | MIC (Salmonella typhi [17]): 50 µg/mL (≈ 93.4 µM) | MIC (Pseudomonas aeruginosa [18]): 12.5 µg/mL (≈ 23.3 µM) | MIC (Staphylococcus aureus [19]): 25 µg/mL (≈ 46.7 µM) | MIC (Bacillus cereus [20]): 50 µg/mL (≈ 93.4 µM) | inhibition [21]: inactive | MIC (Escherichia coli [22]): 12.5 µg/mL (≈ 23.3 µM) | inhibition (percent inhibition) [23]: 97% | MIC [23]: 50 µg/mL (≈ 93.4 µM) | MIC [24]: > 6.25 µg/mL | inhibition zone (IZ) (Candida albicans [25]): 23 mm

N#Cc1ccc(Nc2nc(Oc3ncnc4ccccc34)nc(N3CCN(c4ccccc4F)CC3)n2)cc1C(F)(F)F
MIC (Candida albicans [1]): 12.5 µg/mL (≈ 21.3 µM) | inhibition zone (IZ) (Aspergillus clavatus [2]): 24 mm | inhibition zone (IZ) (Aspergillus niger [3]): 26 mm | inhibition zone (IZ) (Aspergillus fumigatus [4]): 22 mm | inhibition zone (IZ) (Pseudomonas aeruginosa [30]): inactive | inhibition zone (IZ) (Shigella flexneri [31]): 25 mm | inhibition zone (IZ) (Proteus vulgaris [7]): 23 mm | inhibition zone (IZ) (Salmonella typhi [8]): 26 mm | inhibition zone (IZ) (Klebsiella pneumoniae [26]): 24 mm | inhibition zone (IZ) (Pseudomonas aeruginosa [9]): 25 mm | inhibition zone (IZ) (Bacillus cereus [10]): 26 mm | inhibition zone (IZ) (Escherichia coli [11]): 24 mm | inhibition zone (IZ) (Staphylococcus aureus [12]): 27 mm | MIC (Aspergillus clavatus [13]): 25 µg/mL (≈ 42.6 µM) | MIC (Aspergillus fumigatus [14]): 25 µg/mL (≈ 42.6 µM) | MIC (Aspergillus niger [15]): 3.12 µg/mL (≈ 5.31 µM) | MIC (Proteus vulgaris [16]): 25 µg/mL (≈ 42.6 µM) | MIC (Shigella flexneri [32]): 25 µg/mL (≈ 42.6 µM) | MIC (Klebsiella pneumoniae [27]): 25 µg/mL (≈ 42.6 µM) | MIC (Salmonella typhi [17]): 12.5 µg/mL (≈ 21.3 µM) | MIC (Pseudomonas aeruginosa [18]): 25 µg/mL (≈ 42.6 µM) | MIC (Staphylococcus aureus [19]): 6.25 µg/mL (≈ 10.6 µM) | MIC (Bacillus cereus [20]): 6.25 µg/mL (≈ 10.6 µM) | inhibition [21]: inactive | MIC (Escherichia coli [22]): 50 µg/mL (≈ 85.1 µM) | inhibition (percent inhibition) [23]: 98% | MIC [23]: 12.5 µg/mL (≈ 21.3 µM) | MIC [24]: > 6.25 µg/mL | inhibition zone (IZ) (Candida albicans [25]): 26 mm
